Test results from patent US11186575B2, “Treatment of helicobacter pylori infections” (Albert Einstein College of Medicine, Inc., priority 2012, dated 2021).
In brackets after ≈: the same amount, converted by molar mass. Where two headings read alike, the source gives them in different places.

Legend:
[1] = molecular target: T1, H. pylori MTAN (Helicobacter pylori, UniProt Q9ZMY2); test: Ki determination: inhibition of recombinant HpMTAN, xanthine oxidase coupled assay, 5′-methylthioadenosine as substrate; type: biochemical
T1 construct: His6 (N); made in house; host or cells: E. coli BL21 (DE3)
T1 sequence (Q9ZMY2 1-230): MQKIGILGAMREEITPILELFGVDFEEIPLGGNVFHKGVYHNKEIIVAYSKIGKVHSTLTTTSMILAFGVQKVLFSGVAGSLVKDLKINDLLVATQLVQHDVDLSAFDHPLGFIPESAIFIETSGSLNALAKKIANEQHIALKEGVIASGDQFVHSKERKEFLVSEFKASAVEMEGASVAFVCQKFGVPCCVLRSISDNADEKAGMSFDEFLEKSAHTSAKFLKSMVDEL
Experimental: The purification procedure of HpMTAN was described previously^10. Briefly, BL21 (DE3) cells harboring a plasmid encoding HpMTAN with an N-terminal His6-tag were grown to an optical density of 0.7 measured at 595 nm and IPTG was introduced to a final concentration of 0.5 mM. After another 15 h at 22° C., cells were collected by centrifugation. The pellet was suspended and later disrupted by pressure cell and sonication. The soluble portion was applied to a Ni-NTA column and HpMTAN was eluted with an imidazole concentration gradient of 200 to 500 mM. The protein was desalted using a Superdex G15 gel-filtration column then equilibrated and concentrated in 10 mM Hepes, 30 mM KCl, pH 7.6. The purity was confirmed by SDS-PAGE.
Kinetics of HpMTAN were determined using a direct assay involving absorbance decrease at 274 nm continuously as a consequence of formation of free adenine from 5′-methylthioadenosine. The Ki and Ki* values of BuT-DADMe-ImmA (30) were determined using coupled assays, in which xanthine oxidase was used as the coupling enzyme and absorbance increase was followed at 292 nm as the product adenine is converted to 2,8-dihydroxyadenine. Both assays have been previously described
BuT-DADMe-ImmA (30) was previously characterized as a transition state analogue inhibitor of EcMTAN (FIG. 1C)^8. Here, inhibition assays were performed using BuT-DADMe-ImmA against recombinant HpMTAN with 5′-methylthioadenosine as substrate. Purified HpMTAN uses both 5′-methylthioadenosine and 6-amino-6-deoxyfutalosine as facile substrates. […] The low Kd value supports the proposal that BuT-DADMe-ImmA is a transition state analogue inhibitor for HpMTAN. […] The nitrogen of the hydroxypyrrolidine moiety has a pKa value of 9, and thus mimics the positive charge of a ribocation at the transition state. The methylene bridge extends the distance between the sugar and the purine base leaving group, as this distance is near 3 Å at the transition state. The 9-deazaadenine alters conjugation in the purine ring, causing an elevated pKa and protonation of N7, resembling the N7-protonated adenine leaving group at the transition state.

[2] = tested on: H. pylori; test: H. pylori growth on tryptic soy agar with 5% horse blood (MIC); type: cell-based, Helicobacter pylori; details: Helicobacter pylori, read-out: Inhibition of H. pylori growth MIC90
Experimental: (§1) H. pylori were grown for 72 hours under microaerophilic condition (5% O2, 10% CO2 and 85% N2) at 37° C. on tryptic soy agar with 5% horse blood. To determine the MIC values, the test substance was added to the gel solution right before pouring. To compare the zones of inhibition, specific antibiotics were added to the center of disc after spreading H. pylori, and then H. pylori was allowed to grow for 72 hours under microaerophilic condition at 37° C.
The effects of BuT-DADMe-ImmA (30) were tested on H. pylori growing on 5% horse blood agar. At 6 ng/ml, slight growth was detected and at 8 ng/ml, no growth was detected, therefore the MIC90 value for inhibition of H. pylori growth is <8 ng/ml (FIG. 3A).

[3] = tested on: H. pylori; test: Zone of inhibition (disc) on H. pylori; type: cell-based, Helicobacter pylori; details: equivalent amounts (10 ng or 20 ng per disc)
Experimental: FIG. 3A-3B: The effects of BuT-DADMe-ImmA (30) on H. pylori growth. A. The effects of increasing the concentration of BuT-DADMe-ImmA (ng/ml) on growth on blood agar. B. The inhibitory effects of BuT-DADMe-ImmA are compared with amoxicillin, metronidazole and tetracyclin in zone of inhibition studies. Drug concentrations were: 0 (top disc), 10 ng (middle disc) or 20 ng (bottom disc). Each specified antibiotic was applied to the disc in the same manner.
as §1
Commonly used antibiotics in H. pylori infections include amoxicillin, metronidazole and tetracycline. The anti-H. pylori effects of BuT-DADMe-ImmA (30) were compared to those antibiotics in common use. […] Thus, BuT-DADMe-ImmA is more efficient at inhibition of H. pylori growth than commonly used antibiotics.

[4] = molecular target: T1, H. pylori MTAN; details: Table 3, cited from earlier work
[5] = Table 4, Immucillin-A series, read-out: Inhibition of H. pylori MTAN Ki
[6] = Table 4, Immucillin-A series, read-out: Inhibition of H. pylori MTAN Ki*
[7] = 72 h, Table 4, Immucillin-A series
[8] = Table 3, DADMe-Immucillin-A series, initial inhibition constant, read-out: Inhibition of H. pylori MTAN Ki
[9] = Table 3, equilibrium dissociation constant after slow onset, read-out: Inhibition of H. pylori MTAN Ki*
[10] = Table 3, agar plate, 72 hours, microaerophilic

Structure (SMILES)	Ki [1, 8] [pM]	Ki [1, 9] [pM]	MIC90 [2, 10] [µg/mL]	also measured
CSC[C@H]1NC(c2c[nH]c3c(N)ncnc23)[C@H](O)[C@@H]1O (stereo partly shown) [Compound 44]				Ki [1, 5]: 980 ± 60 pM; Ki [1, 6]: 240 ± 30 pM; MIC90 [2, 7]: 0.08 µg/mL (≈ 0.271 µM)
Nc1ncnc2c(CN3C[C@H](CSC4CCCC4)[C@@H](O)C3)c[nH]c12 [Compound 32]	780 ± 150	170 ± 10	0.007 to 0.014 (≈ 0.0201 to 0.0403 µM)	
CCCC[C@H]1CN(Cc2c[nH]c3c(N)ncnc23)C[C@@H]1O [Compound 33]	58 ± 14	7 ± 2	0.01 (≈ 0.0346 µM)	
Nc1ncnc2c(CN3C[C@H](CSCC4CCCCC4)[C@@H](O)C3)c[nH]c12 [Compound 36]	560 ± 270	45 ± 4	0.018 to 0.035 (≈ 0.0479 to 0.0932 µM)	
Cc1ncc([N+](=O)[O-])n1CCO [metronidazole, reference compound]				zones of inhibition, comparison of antibiotics [3]: no growth inhibition
Nc1ncnc2c(CN3CC(O)[C@@H](CSCCCO)C3)c[nH]c12 (stereo partly drawn) [Compound 11, (4S)-1-((4-Amino-5H-pyrrolo[3,2-d]pyrimidin-7-yl)methyl)-4-(((3-hydroxypropyl)thio)methyl)pyrrolidin-3-ol]	890 ± 130	100 ± 10	0.04 (≈ 0.119 µM)	
Nc1ncnc2c(CN3C[C@H](CCSCCO)[C@@H](O)C3)c[nH]c12 [Compound 16, (3R,4S)-1-({4-Amino-5H-pyrrolo[3,2-d]pyrimidin-7-yl}methyl)-4-{2-[(2-hydroxyethyl)thio]ethyl}pyrrolidin-3-ol]	260 ± 30	50 ± 10	0.08 (≈ 0.237 µM)	
CCSC[C@H]1CN(Cc2c[nH]c3c(N)ncnc23)C[C@@H]1O [Compound 34]	120 ± 30	520 ± 40	0.016 (≈ 0.052 µM)	
CSCC1CN(Cc2c[nH]c3c(N)ncnc23)CC1O (stereo not shown) [Compound 31]			0.006 to 0.012 (≈ 0.0205 to 0.0409 µM)	Ki ([4]; read-out: Inhibition of H. pylori MTAN Ki*, value from Reference 10): 570 pM; Ki ([4]; read-out: Inhibition of H. pylori MTAN Ki, value marked (Reference 10)): 1200 pM
CCCCCCSC[C@H]1CN(Cc2c[nH]c3c(N)ncnc23)C[C@@H]1O [Compound 18, (3R,4S)-1-({4-Amino-5H-pyrrolo[3,2-d]pyrimidin-7-yl}methyl)-4-[(hexylthio)methyl]pyrrolidin-3-ol]	210 ± 30	5 ± 2	0.004 to 0.008 (≈ 0.011 to 0.022 µM)	
Nc1ncnc2c(CN3CC(O)[C@@H](CSCCO)C3)c[nH]c12 (stereo partly drawn) [Compound 10, (4S)-1-((4-amino-5H-pyrrolo[3,2-d]pyrimidin-7-yl)methyl)-4-(((2-hydroxyethyl)thio)methyl)pyrrolidin-3-ol]	430 ± 120	40 ± 10		
Nc1ncnc2c(CN3CC(O)[C@@H](CSCCCCO)C3)c[nH]c12 (stereo partly drawn) [Compound 12, (4S)-1-((4-Amino-5H-pyrrolo[3,2-d]pyrimidin-7-yl)methyl)-4-(((4-hydroxybutyl)thio)methyl)pyrrolidin-3-ol]	340 ± 70	110 ± 40	0.02 (≈ 0.0569 µM)	
Nc1ncnc2c(CN3C[C@H](CSc4n[nH]c(-c5ccncc5)n4)[C@@H](O)C3)c[nH]c12 [Compound 56, (3R,4S)-1-({4-Amino-5H-pyrrolo[3,2-d]pyrimidin-7-yl}methyl)-4-({[5-(pyridin-4-yl)-1H-1,2,4-triazol-3-yl]thio}methyl)pyrrolidin-3-ol]	280 ± 20		> 0.1	
CCC[C@H]1CN(Cc2c[nH]c3c(N)ncnc23)C[C@@H]1O [Compound 35]	53 ± 7		0.016 (≈ 0.0581 µM)	
Nc1ncnc2c(CN3C[C@H](CCSCCOCCO)[C@@H](O)C3)c[nH]c12 [Compound 17, (3R,4S)-1-({4-Amino-5H-pyrrolo[3,2-d]pyrimidin-7-yl}methyl)-4-(2-{[2-(2-hydroxyethoxy)ethyl]thio}ethyl)pyrrolidin-3-ol]	280 ± 30	50 ± 10	0.08 (≈ 0.21 µM)	
Nc1ncnc2c(CN3C[C@H](CSC4CCCCCC4)[C@@H](O)C3)c[nH]c12 [Compound 37]	400 ± 50	27 ± 2	0.035 to 0.07 (≈ 0.0932 to 0.186 µM)	
CCCCCCSCC[C@H]1CN(Cc2c[nH]c3c(N)ncnc23)C[C@@H]1O [Compound 19, (3R,4S)-1-({4-Amino-5H-pyrrolo[3,2-d]pyrimidin-7-yl}methyl)-4-[2-(hexylthio)ethyl]pyrrolidin-3-ol]	700 ± 100	140 ± 10	0.04 (≈ 0.106 µM)	
Nc1ncnc2c(CN3CC(O)C(CSc4ccc(Cl)cc4)C3)c[nH]c12 (stereo not shown) [Compound 41]				Ki ([4]; value from Reference 10, read-out: Inhibition of H. pylori MTAN Ki*): 570 pM; Ki ([4]; value marked (Reference 10), read-out: Inhibition of H. pylori MTAN Ki): 40000 pM
Nc1ncnc2c(CN3C[C@H](CSc4cnccn4)[C@@H](O)C3)c[nH]c12 [Compound 27, (3R,4S)-1-({4-Amino-5H-pyrrolo[3,2-d]pyrimidin-7-yl}methyl)-4-[(pyrazin-2-ylthio)methyl]pyrrolidin-3-ol]	43 ± 1	6	0.008 (≈ 0.0224 µM)	
Nc1ncnc2c(CN3C[C@H](CSCc4ccccc4)[C@@H](O)C3)c[nH]c12 [Compound 38]	203000 ± 28000	310 ± 80	0.04 (≈ 0.108 µM)	
C#CCCCCSC[C@H]1CN(Cc2c[nH]c3c(N)ncnc23)C[C@@H]1O [Compound 14, (3R,4S)-1-({4-Amino-5H-pyrrolo[3,2-d]pyrimidin-7-yl}methyl)-4-[(hex-5-yn-1-ylthio)methyl]pyrrolidin-3-ol]	500 ± 200	90 ± 20	0.004 to 0.008 (≈ 0.0111 to 0.0223 µM)	
Nc1ncnc2c(CN3CC(O)[C@@H](CSCCOCCO)C3)c[nH]c12 (stereo partly drawn) [Compound 13, (4S)-1-((4-Amino-5H-pyrrolo[3,2-d]pyrimidin-7-yl)methyl)-4-(((2-(2-hydroxyethoxyl)ethyl)thio)methyl)pyrrolidin-3-ol]	960 ± 160	15 ± 4	0.035 to 0.07 (≈ 0.0952 to 0.19 µM)	
Nc1ncnc2c(CN3C[C@H](CSC4CCC4)[C@@H](O)C3)c[nH]c12 [Compound 40]	270 ± 40	40 ± 10		
Nc1ncnc2c(CN3C[C@H](CSc4ccccn4)[C@@H](O)C3)c[nH]c12 [Compound 24, (3R,4S)-1-({4-Amino-5H-pyrrolo[3,2-d]pyrimidin-7-yl}methyl)-4-[(pyridin-2-ylthio)methyl]pyrrolidin-3-ol]	320 ± 700	41 ± 2	0.04 (≈ 0.112 µM)	
CCCSC[C@H]1NC(c2c[nH]c3c(N)ncnc23)[C@H](O)[C@@H]1O (stereo partly shown) [Compound 42]				Ki [1, 5]: 600 ± 100 pM; MIC90 [2, 7]: 0.016 µg/mL (≈ 0.0495 µM)
CCCCSC[C@H]1NC(c2c[nH]c3c(N)ncnc23)[C@H](O)[C@@H]1O (stereo partly shown) [Compound 43]				Ki [1, 5]: 510 ± 70 pM; Ki [1, 6]: 50 ± 10 pM; MIC90 [2, 7]: 0.02 µg/mL (≈ 0.0593 µM)
Nc1ncnc2c(CN3C[C@H](CSc4nccs4)[C@@H](O)C3)c[nH]c12 [Compound 29]	240 ± 70	16 ± 5	0.02 (≈ 0.0552 µM)	
